Reference: patent publication US10561666B2, “Amido compounds as RORγt modulators and uses thereof” (New York University, priority 2010, dated 2020)

Biological target: RORγt (Mus musculus, UniProt P51450, T352K)
Experiment: RORγt S2 cell Gal4-luciferase reporter assay
Settings: for Emax: read-out: Efficacy (%); for Efficacy (%): % of the maximal response of control inhibitor (Digoxin), set at 100%
[1] = IC50(μM), Drosophila S2 cells, Gal4-RORγt luciferase reporter, 20 hr
[2] = S2 cell RORg IC50 μM, S2 cell reporter assay, listed for comparison
[3] = Drosophila S2 cells, Gal4-RORγt luciferase reporter, 20 hr

Chain of RORγt (P51450 with tags, fused parts or gaps T352K): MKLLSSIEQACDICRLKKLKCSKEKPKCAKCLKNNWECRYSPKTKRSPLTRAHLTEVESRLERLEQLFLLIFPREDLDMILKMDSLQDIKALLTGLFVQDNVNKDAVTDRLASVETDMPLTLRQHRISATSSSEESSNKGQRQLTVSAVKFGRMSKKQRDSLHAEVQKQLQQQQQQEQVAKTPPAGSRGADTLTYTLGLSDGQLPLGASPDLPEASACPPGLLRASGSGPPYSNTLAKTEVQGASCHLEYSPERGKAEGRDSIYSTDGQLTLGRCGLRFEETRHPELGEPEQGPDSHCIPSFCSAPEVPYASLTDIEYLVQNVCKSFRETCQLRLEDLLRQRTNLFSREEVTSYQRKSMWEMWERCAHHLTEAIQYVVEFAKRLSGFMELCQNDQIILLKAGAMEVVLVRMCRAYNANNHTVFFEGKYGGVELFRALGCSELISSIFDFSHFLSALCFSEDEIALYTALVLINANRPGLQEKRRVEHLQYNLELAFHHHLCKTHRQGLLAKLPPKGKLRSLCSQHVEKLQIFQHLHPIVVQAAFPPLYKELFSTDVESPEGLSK
Description: Methods: The Drosophila S2 cell line was originally purchased from Invitrogen and was maintained in Schneider's medium supplemented with 10% heat-inactivated bovine fetal calf serum and antibiotics (Invitrogen). […] The resulting chimeric gene was subcloned into the copper inducible pMT/V5-His A vector (available from Invitrogen).
In order to generate stable cell lines, cells were co-transfected with pMT-G4DBD-RORγt, pMT-G4DBD-RORα, pMT-G4DBD-DHR3, or pMT-G4DBDVP16 and pHygro plasmids (Invitrogen) and screened for resistant colonies in the presence of hygromycin (0.3 mg/mL).
Methods: 600 G4DBD-RORγ/γt-luc reporter (#25) or G4DBD-VP16-luc reporter cells were distributed into each well of 1,536-well white bottom plates in 4 μl S2 cell culture volume containing hygromicin (300 μg/ml) and puromycin (2 μg/ml). […] After one-hour incubation, 1 μl of culture medium solution containing copper sulfate (to final 0.7 mM) and 10 μM RORγ/γt antagonists were added to each well. After 20-hour incubation at ambient temperature, 1.5 μl firefly luciferase detection mix was added and the luciferase activities were measured in 10 min. ViewLux luminometers were used for measuring luciferase signal.
Since their cognate DNA binding sites were not well characterized, the DNA binding domains (DBD) of RORγ/γt, RORα (mouse homolog for POPγ), and DHR3 (Drosophila orthologue for ROR family proteins) were replaced with the heterologous yeast GAL4 DBD. The transcriptionally active domain of general transcriptional activator VP16 was also fused with GAL4 DBD. The GAL4 fusion constructs were placed under the control of a copper inducible promoter, and stable S2 cell lines with genomic integration of these four reporter constructs were generated. The copper inducible promoter ensures tight regulation of GAL4-fusion protein expression and it allows small molecules to get into the cells prior to protein induction, thus increasing their effects on GAL4 reporters. The stable reporter cell lines also encode the firefly luciferase reporter, whose expression is regulated by five copies of the GAL4 binding site enhancer (UAS), along with the pol III-driven Renilla luciferase reporter.
A cell-based reporter assay was used to detect RORγt-mediated activity. This assay, called RORγt□ employed Drosophila Schneider cells that were stably transfected with two vectors: a gene expressing a fusion of the Gal4 DNA binding domain and RORγt transactivation domain under the control of the metallothionine promoter and a Photinus luciferase reporter regulated by the Gal4 binding site enhancer, UAS. […] Cells (600/well) were dispensed into white solid 1536-well plates (Greiner) using a solenoid-based dispenser. Following transfer of 23 nL compound or DMSO vehicle by a pin tool, the plates were incubated 1 hr at ambient temperature, and 1 uL/well copper sulfate (700 uM final concentration) was added. The plates were centrifuged 15 s at 1000 RPM and incubated 20 hr at ambient temperature. After addition of 1.5 uL Photinus luciferase detection reagent, the plates were incubated 10 min at ambient temperature and then read by a ViewLux (Perkin Elmer) to detect luminescence. […] Efficacy is expressed as % of the maximal response of control inhibitor (Digoxin), set at 100%.

`COc1ccccc1C(CC(=O)N1C[C@H](C)C[C@H](C)C1)c1ccccc1` (stereo partly drawn) [Compound 55] was tested, and the IC50 [1] was greater than 50 µM and the IC50 [2] was greater than 20 µM.
In the case of `COc1cc(O)c(C(CC(=O)N2CC(C)CC(C)C2)c2ccc(S(=O)(=O)N(C)C)cc2)c(OC)c1` (stereo not drawn) [Compound 84, 4-(3-(3,5-Dimethylpiperidin-1-yl)-1-(2-hydroxy-4,6-dimethoxyphenyl)-3-oxopropyl)-N,N-dimethylbenzenesulfonamide], the IC50 [1] is reported as 11 to 50 µM.
For `COc1cc(O)c(C(CC(=O)N2CC(C)CC(C)C2)c2ccc(Cl)c(Cl)c2)c(OC)c1` (stereo not drawn) [Compound 88, 3-(3,4-Dichlorophenyl)-1-(3,5-dimethylpiperidin-1-yl)-3-(2-hydroxy-4,6-dimethoxyphenyl)propan-1-one], the IC50 [1] was 1 to 10 µM and the Emax was 97.2%.
Compound `CC1CC(C)CN(C(=O)CC(c2ccc3c(c2)OCO3)c2ccc(F)cc2O)C1` (stereo not drawn) [Compound 144] has an IC50 [1] of 11 to 50 µM and an Emax of 97.3%.
With “N-(3-(3-(3,5-Dimethylpiperidin-1-yl)-1-(2-hydroxy-4,6-dimethoxyphenyl)-3-oxopropyl)phenyl)methanesulfonamide [Compound 82]” the “Efficacy (%)” value was −95.39% and the IC50 [3] was less than 1 µM.
`Cc1ccc(O)c(C(CC(=O)NC2CCCCC2)c2ccccc2)c1` (stereo not drawn) [Compound 47] showed an IC50 [1] greater than 50 µM.
In the case of `CC1CC(C)CN(C(=O)CC(c2ccc3c(c2)OCO3)c2cc(F)ccc2O)C1` (stereo not drawn) [Compound 145], the IC50 [1] is reported as 1 to 10 µM and the Emax is reported as 79.7%.
With `CC1CCCN(C(=O)CC(c2ccc3c(c2)OCO3)c2ccc3ccccc3c2O)C1` (stereo not drawn) [Compound 68] the IC50 [1] was greater than 50 µM.
Work on `COc1cc(OC)c(C(CC(=O)N2CCCC(C)C2)c2ccc3c(c2)OCO3)c(OCc2ccccc2)c1` (stereo not drawn) [Compound 124] yielded an IC50 [1] of 1 to 10 µM, an IC50 [2] of 1 to 10 µM and an Emax of 94.1%.
Work on `COc1cc(O)c(C(CC(=O)N2CC(C)CC(C)C2)c2ccc(C(=O)NC3CC3)cc2)c(OC)c1` (stereo not drawn) [Compound 95] yielded an IC50 [1] of 1 to 10 µM and an Emax of 93.1%.
`COc1cc(O)c(C(CC(=O)N2CCCC(C)C2)c2ccc3c(c2)OCO3)c2ccccc12` (stereo not drawn) [Compound 129] showed an IC50 [1] of 11 to 50 µM and an Emax of 76.9%.
`COc1cc(O)c(C(CC(=O)N2CCCC(C)C2)c2ccc(OC)c(OC)c2)c(OC)c1` (stereo not drawn) [Compound 58] was tested, and the IC50 [1] was 11 to 50 µM and the Emax was 98.2%.
Work on `COc1cc(O)c(C(CC(=O)N(Cc2ccccc2)Cc2ccccc2)c2ccc3c(c2)OCO3)c(OC)c1` (stereo not drawn) [Compound 33] yielded an IC50 [1] greater than 50 µM.
Work on `COc1cc(O)c(C(CC(=O)NC2CCC(C)CC2)c2ccc3c(c2)OCO3)c(OC)c1` (stereo not drawn) [Compound 23] yielded an IC50 [1] of 11 to 50 µM and an Emax of 76.8%.
In the case of `COc1cc(O)c(C(CC(=O)N2CC(C)CC(C)C2)c2cccc(OC(C)C)c2)c(OC)c1` (stereo not drawn) [Compound 94, 1-(3,5-Dimethylpiperidin-1-yl)-3-(2-hydroxy-4,6-dimethoxyphenyl)-3-(3-isopropoxyphenyl)propan-1-one], the IC50 [1] is reported as 1 to 10 µM and the Emax is reported as 90.5%.
With `O=C(CC(c1ccc2c(c1)OCO2)c1c(O)ccc2ccccc12)N1CCCCC1` (stereo not drawn) [Compound 147] the IC50 [1] was 11 to 50 µM and the Emax was 88.1%.
Work on `COc1cc(O)c(C(CC(=O)N2CC(C)CC(C)C2)c2cc(F)c(F)c(F)c2)c(OC)c1` (stereo not drawn) [Compound 109, 1-(3,5-Dimethylpiperidin-1-yl)-3-(2-hydroxy-4,6-dimethoxyphenyl)-3-(3,4,5-trifluorophenyl)propan-1-one] yielded an IC50 [1] of 1 to 10 µM and an Emax of 97.3%.
`CCC1CCCN(C(=O)CC(c2ccc3c(c2)OCO3)c2c(O)cc(OC)cc2OC)C1` (stereo not drawn) [Compound 7] gave an IC50 [1] of 1 to 10 µM and an Emax of 96.2%.
`COc1ccccc1C(CC(=O)N1CCCC(C)C1)c1ccccc1` (stereo not drawn) [Compound 52] showed an IC50 [1] greater than 50 µM.
With `CC1CCCN(C(=O)CC(c2ccc3c(c2)OCO3)c2ccc(F)cc2O)C1` (stereo not drawn) [Compound 132] the IC50 [1] was 1 to 10 µM and the Emax was 30.4%.
`COc1cc(O)c(C(CC(=O)N2CCCC(C(C)C)C2)c2ccc3c(c2)OCO3)c(OC)c1` (stereo not drawn) [Compound 11] was tested, and the IC50 [1] was 11 to 50 µM and the Emax was 102%.
`CC1CCCN(C(=O)CC(c2ccc3c(c2)OCO3)c2c(O)cccc2Cl)C1` (stereo not drawn) [Compound 127] was tested, and the IC50 [1] was 11 to 50 µM and the Emax was 27.1%.
Compound `COc1cc(O)c(C(CC(=O)N2CCOCC2)c2ccc3c(c2)OCO3)c(OC)c1` (stereo not drawn) [Compound 4] has an IC50 [1] of 11 to 50 µM and an Emax of 20.2%.
For `COc1cccc(O)c1C(CC(=O)N1CC(C)CC(C)C1)c1ccc2c(c1)OCO2` (stereo not drawn) [Compound 140, 3-(Benzo[d][1,3]dioxol-5-yl)-1-(3,5-dimethylpiperidin-1-yl)-3-(2-hydroxy-6-methoxyphenyl)propan-1-one], the IC50 [1] was less than 1 µM and the Emax was 96.5%.
In the case of `COc1cc(O)c(C(CC(=O)N2CC(C)CC(C)C2)c2ccc3c(c2)OC(F)(F)O3)c(OC)c1` (stereo not drawn) [Compound 104], the IC50 [1] is reported as 1 to 10 µM and the Emax is reported as 97.3%.
Work on `COc1cc(OC)c(C(c2ccccc2)C(C)(C)C(=O)N2CC3CC4CC(C3)CC2C4)c(OC)c1` (stereo not drawn) [Compound 151] yielded an IC50 [1] greater than 50 µM and an Emax of 118%.
`COc1cc(O)c(C(CC(=O)N2CC(C)CC(C)C2)c2ccc3c(c2)OCCCO3)c(OC)c1` (stereo not drawn) [Compound 80] gave an IC50 [1] of less than 1 µM and an Emax of 94%.
In the case of `CCCN(C(=O)C(C)(C)C(c1ccccc1)c1c(OC)cc(OC)cc1OC)C1CCCC(C)C1` (stereo not drawn) [Compound 155], the IC50 [1] is reported as greater than 50 µM.
With `COc1cc(O)c(C(CC(=O)N2CC(C)CC(C)C2)c2cccc(C#N)c2)c(OC)c1` (stereo not drawn) [Compound 87, 3-(3-(3,5-Dimethylpiperidin-1-yl)-1-(2-hydroxy-4,6-dimethoxyphenyl)-3-oxopropyl)benzonitrile] the IC50 [1] was less than 1 µM and the Emax was 96.6%.
For `COc1cc(O)c(C(CC(=O)N[C@H](C)c2ccccc2)c2ccc3c(c2)OCO3)c(OC)c1` (stereo partly drawn) [Compound 34], the IC50 [1] was greater than 50 µM.
Work on `COc1c(C(CC(=O)N2CC(C)CC(C)C2)c2ccc3c(c2)OCO3)c(O)cc2occc12` (stereo not drawn) [Compound 139] yielded an IC50 [1] of less than 1 µM and an Emax of 94.5%.
`COc1cc(O)c(C(CC(=O)N2CCCC(C#N)C2)c2ccc3c(c2)OCO3)c(OC)c1` (stereo not drawn) [Compound 6] gave an IC50 [1] of 11 to 50 µM and an Emax of 66%.
Work on `COc1cc(OC)c(C(c2ccccc2)C(C)(C)C(=O)N2CC3CCC2C3)c(OC)c1` (stereo not drawn) [Compound 152] yielded an IC50 [1] of 11 to 50 µM and an Emax of 50.7%.
In the case of `COc1cc(O)c(C(CC(=O)NCC2CCCCC2)c2ccc3c(c2)OCO3)c(OC)c1` (stereo not drawn) [Compound 24], the IC50 [1] is reported as greater than 50 µM.
`COc1cc(O)c(C(CC(=O)N2CCC(c3ccccc3)CC2)c2ccc(OC)c(OC)c2)c(OC)c1` (stereo not drawn) [Compound 45] showed an IC50 [1] greater than 50 µM.
`CCOc1ccc(C(CC(=O)N2CCCC(C)C2)c2c(O)cc(OC)cc2OC)cc1` (stereo not drawn) [Compound 62] showed an IC50 [1] of 1 to 10 µM and an Emax of 100%.
`CCC(=O)C1CCCN(C(=O)CC(c2ccc3c(c2)OCO3)c2c(O)cc(OC)cc2OC)C1` (stereo not drawn) [Compound 13] was tested, and the IC50 [1] was greater than 50 µM.
`COc1ccccc1C(CC(=O)N1CCCCC1)c1ccccc1` (stereo not drawn) [Compound 56] gave an IC50 [1] of 1 to 10 µM and an Emax of 30.5%.
`Cc1ccc(C(CC(=O)N2CCCC(C)C2)c2ccc3c(c2)OCO3)c(O)c1` (stereo not drawn) [Compound 125] showed an IC50 [1] of 11 to 50 µM and an Emax of 51.6%.
With `COc1cc2ccccc2c(O)c1C(CC(=O)N1CCCC(C)C1)c1ccc2c(c1)OCO2` (stereo not drawn) [Compound 128] the IC50 [1] was 11 to 50 µM and the Emax was 80%.
In the case of `COc1ccc2ccccc2c1C(c1ccc(F)cc1)C(C)(C)C(=O)N1CC(C)CC(C)C1` (stereo not drawn) [Compound 157], the IC50 [1] is reported as 1 to 10 µM and the Emax is reported as 94.4%.
For `COc1cc(O)c(C(CC(=O)Nc2cccc3ccccc23)c2ccc3c(c2)OCO3)c(OC)c1` (stereo not drawn) [Compound 31], the IC50 [1] was greater than 50 µM.
With `CCOc1ccc(O)c(C(CC(=O)N2CCCC(C)C2)c2ccc3c(c2)OCO3)c1` (stereo not drawn) [Compound 119] the IC50 [1] was 11 to 50 µM, the IC50 [2] was 11 to 20 µM and the Emax was 94.3%.
Compound `COc1cc(O)c(C(CC(=O)N2CC(C)CC(C)C2)c2ccc(OC(F)(F)F)cc2)c(OC)c1` (stereo not drawn) [Compound 96, 1-(3,5-Dimethylpiperidin-1-yl)-3-(2-hydroxy-4,6-dimethoxyphenyl)-3-(4-(trifluoromethoxy)phenyl)propan-1-one] has an IC50 [1] of 1 to 10 µM and an Emax of 94.8%.
For `COc1cc(O)c(C(CC(=O)N2CCCC(C(=O)c3ccccc3)C2)c2ccc3c(c2)OCO3)c(OC)c1` (stereo not drawn) [Compound 16], the IC50 [1] was greater than 50 µM.
Work on `Cc1cccc(C(CC(=O)NCCc2ccccc2)c2ccccc2)c1O` (stereo not drawn) [Compound 48] yielded an IC50 [1] greater than 50 µM.
With `COc1cc(O)c(C(CC(=O)N2CCc3ccccc3C2)c2ccc3c(c2)OCO3)c(OC)c1` (stereo not drawn) [Compound 27] the IC50 [1] was 11 to 50 µM and the Emax was 80.7%.
Work on `COc1cc(O)c(C(CC(=O)N2CC(C)CC(C)C2)c2ccc(C(N)=O)cc2)c(OC)c1` (stereo not drawn) [Compound 111] yielded an IC50 [1] of 1 to 10 µM.
For “1-(3,5-Dimethylpiperidin-1-yl)-3-(2-hydroxy-4,6-dimethoxyphenyl)-3-(3-(methylsulfonyl)phenyl)propan-1-one [Compound 83]”, the “Efficacy (%)” value was −93.79% and the IC50 [3] was 1 to 10 µM.
In the case of `Cc1cccc(O)c1C(CC(=O)N1CCCC(C)C1)c1ccc2c(c1)OCO2` (stereo not drawn) [Compound 126], the IC50 [1] is reported as 11 to 50 µM and the Emax is reported as 43.5%.
Compound `COc1cc(O)c(C(CC(=O)N2CC(C)CC(C)C2)c2ccc(C(C)=O)cc2)c(OC)c1` (stereo not drawn) [Compound 100, 3-(4-Acetylphenyl)-1-(3,5-dimethylpiperidin-1-yl)-3-(2-hydroxy-4,6-dimethoxyphenyl)propan-1-one] has an IC50 [1] of less than 1 µM.
For `COc1cc(O)c(C(CC(=O)NC2CCCc3ccccc32)c2ccc3c(c2)OCO3)c(OC)c1` (stereo not drawn) [Compound 26], the IC50 [1] was greater than 50 µM.
For `COc1cc(O)c(C(CC(=O)N2CC(C)CC(C)C2)c2cccc(F)c2)c(OC)c1` (stereo not drawn) [Compound 102], the IC50 [1] was 1 to 10 µM and the Emax was 99.9%.
In the case of `COc1cc(O)c(C(CC(=O)Nc2ccc(C)cc2)c2ccc3c(c2)OCO3)c(OC)c1` (stereo not drawn) [Compound 29], the IC50 [1] is reported as greater than 50 µM.
